Data published in patent publication US10017462B1, “Antimicrobial poly(guanylurea)s” (THE FLORIDA INTERNATIONAL UNIVERSITY BOARD OF TRUSTEES, priority 2018, dated 2018).
In brackets after ≈: the same amount, converted by molar mass.

Test system: methicillin-resistant Staphylococcus aureus (MRSA) (ATCC BAA-44)
Assay: MIC assay, broth microdilution with resazurin
Assay type: cell-based
Conditions: Mueller Hinton broth, 20-44 h at 37° C.
Procedure: Antimicrobial assay antimicrobial activities of the polymers were determined by the minimal inhibitory concentration (MIC) assay. MIC of Mycobacterium smegmatis (ATCC 700084), Shigella flexneri (ATCC 9199), Staphylococcus aureus (ATCC 14775) and methicillin-resistant Staphylococcus aureus (MRSA) (ATCC BAA-44) were determined by the standard broth microdilution method with slight modification. In brief, different bacteria were grown in either Mueller Hinton broth (MHB) or 7H9 broth (M. smegmatis) overnight at 37° C. Next day, the cells were first OD600 adjusted to 0.1 and then further diluted 1:100 in the respective media and 50 μL (˜10^5 CFU) is added to 96 well-microplate wells containing 50 μL serial dilutions of the polymers. The plates were incubated for 20-44 h at 37° C. MIC is defined as the lowest concentration of the polymer that inhibits the visual growth of the bacteria. To aid in determining the visual growth of bacteria, resazurin, a red-ox dye is added to the wells at a final concentration of 0.02% and incubated for 4-8 h at 37° C. In the presence of viable cells, resazurin (blue) is reduced to resorfurin (pink) along with an increase in fluorescence. MIC was calculated as the lowest concentration of the polymer that prevented the color change and reduced the fluorescence (Ex 540, Em 590 nm) by 90% when compared to the control wells containing no inhibitor. […]

With `O=C(O)c1cn(C2CC2)c2cc(N3CCNCC3)c(F)cc2c1=O` [Ciprofloxacin] the “MIC MRSA” value was 20 µg/mL (≈ 60.4 µM).
